Laboratory results: patent US9994590B2, “Substituted [1,2,4]triazolo[1,5-a]pyrazines as phosphodiesterase inhibitors” (Sunovion Pharamaceuticals Inc., priority 2012, dated 2018)

What follows are molecules tested against recombinant human PDE-10 enzyme (human PDE-10A) (Homo sapiens (Human), UniProt Q9Y233) (assay: human PDE-10 inhibition assay (Molecular Devices IMAP PDE Fluorescence Polarization, enzyme assay IC50)). Conditions: Fluorescein-labeled cAMP/cGMP substrate, 40-minute incubation at 37° C.
Sequence of recombinant human PDE-10 enzyme (human PDE-10A) (Q9Y233 whole entry): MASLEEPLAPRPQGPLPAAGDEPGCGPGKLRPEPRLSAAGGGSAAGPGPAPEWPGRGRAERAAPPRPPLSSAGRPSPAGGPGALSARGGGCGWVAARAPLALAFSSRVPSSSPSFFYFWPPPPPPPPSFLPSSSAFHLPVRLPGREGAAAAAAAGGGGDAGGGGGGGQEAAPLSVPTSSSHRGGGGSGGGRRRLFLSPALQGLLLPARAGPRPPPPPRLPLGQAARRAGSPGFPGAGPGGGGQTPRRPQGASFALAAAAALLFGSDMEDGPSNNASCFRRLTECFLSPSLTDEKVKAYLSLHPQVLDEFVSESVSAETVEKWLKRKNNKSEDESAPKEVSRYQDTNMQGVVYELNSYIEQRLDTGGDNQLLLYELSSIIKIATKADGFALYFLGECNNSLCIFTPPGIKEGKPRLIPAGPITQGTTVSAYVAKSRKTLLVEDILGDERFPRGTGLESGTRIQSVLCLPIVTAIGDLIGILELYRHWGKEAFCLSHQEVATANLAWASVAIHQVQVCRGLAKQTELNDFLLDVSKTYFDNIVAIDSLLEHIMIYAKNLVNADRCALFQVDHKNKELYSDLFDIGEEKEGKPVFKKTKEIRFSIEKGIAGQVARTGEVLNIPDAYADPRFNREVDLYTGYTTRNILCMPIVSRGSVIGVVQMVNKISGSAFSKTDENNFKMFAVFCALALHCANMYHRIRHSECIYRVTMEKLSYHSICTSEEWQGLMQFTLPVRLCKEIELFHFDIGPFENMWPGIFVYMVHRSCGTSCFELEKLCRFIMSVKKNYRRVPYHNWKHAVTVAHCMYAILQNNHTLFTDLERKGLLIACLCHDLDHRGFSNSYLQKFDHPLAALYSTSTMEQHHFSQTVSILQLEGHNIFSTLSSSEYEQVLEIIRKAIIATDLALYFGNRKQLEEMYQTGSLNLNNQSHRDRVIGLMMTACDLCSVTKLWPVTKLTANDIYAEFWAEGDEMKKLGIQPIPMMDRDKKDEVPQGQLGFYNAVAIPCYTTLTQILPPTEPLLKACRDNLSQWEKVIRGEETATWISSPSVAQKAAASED
Format: biochemical
Method: In one embodiment, the compounds provided herein were assayed for their ability to inhibit human PDE-10A. In one embodiment, the activities of the compounds were determined using the Molecular Devices IMAP PDE Fluorescence Polarization assay using recombinant human PDE-10 enzyme expressed in a baculoviral system. Briefly, 10 μL of a compound (0.2 nM-20 μM) was added to either a 96-well half area black plate or a 384-well black plate along with 10 μL of Fluorescein-labeled cAMP/cGMP substrate as per manufacturer's instructions and 10 μL of PDE enzyme (activity 0.1 U). Following a 40-minute incubation at 37° C., 60 μL of IMAP binding reagent was added. The plate was then read on a Perkin Elmer Victor (480-535 nm). The data was analyzed using Prism Software (GraphPad Inc, San Diego, Calif.).

Structure (SMILES) | IC50
Cc1ncc(C)n2nc(C3CC3c3nc4c5cccnc5ccn4c3C)nc12 (stereo not shown) [Compound 1, 2-(2-(5,8-Dimethyl-[1,2,4]triazolo[1,5-a]pyrazin-2-yl)cyclopropyl)-3-methylimidazo[2,1-f][1,6]naphthyridine] | ≤ 10 nM
COc1ccn2cc(C3CC3c3nc4c(C)ncc(C)n4n3)nc2c1C (stereo not shown) [Compound 2, 2-(2-(7-Methoxy-8-methylimidazo[1,2-a]pyridin-2-yl)cyclopropyl)-5,8-dimethyl-[1,2,4]triazolo[1,5-a]pyrazine] | > 500 nM
Fc1cccn2cc(C3CC3c3cn4cccc(F)c4n3)nc12 (stereo not shown) [Compound 10] | > 500 nM
Cn1c([C@H]2C[C@@H]2c2ccc3ccccc3n2)nc2c3cccnc3ccc21 (single isomer, unassigned) [Compound 21] | 10 to 100 nM
Cc1ncc(C)n2nc([C@@H]3C[C@H]3c3nc4c5cccnc5ccn4c3C)nc12 (single isomer, unassigned) [Compound 27] | ≤ 10 nM
Cn1c([C@@H]2C[C@H]2c2ccc3ccccc3n2)nc2c3cccnc3ccc21 (single isomer, unassigned) [Compound 22] | 100 to 500 nM

Results, then the molecule that gave them:

IC50 | Structure (SMILES)
> 500 nM | COc1cccn2c(F)c([C@@H]3C[C@H]3c3nc4c(C)ncc(C)n4n3)nc12 (single isomer, unassigned) [Compound 56, 2-(2-(3-fluoro-8-methoxyimidazo[1,2-a]pyridin-2-yl)cyclopropyl)-5,8-dimethyl-[1,2,4]triazolo[1,5-a]pyrazine]
10 to 100 nM | Cc1ncc(C)n2nc(C3CC3c3cn4ccc5c(c4n3)OCCO5)nc12 (racemic) [Compound 39, (±)-9-(2-(5,8-dimethyl-[1,2,4]triazolo[1,5-a]pyrazin-2-yl)cyclopropyl)-2,3-dihydro-[1,4]dioxino[2,3-c]imidazo[1,2-a]pyridine]
10 to 100 nM | COc1cc(F)cn2c(C)c(C3CC3c3nc4c(C)ncc(C)n4n3)nc12 (racemic) [Compound 34, (±)-2-(2-(6-fluoro-8-methoxy-3-methylimidazo[1,2-a]pyridin-2-yl)cyclopropyl)-5,8-dimethyl-[1,2,4]triazolo[1,5-a]pyrazine]
> 500 nM | Fc1ccn2cc(C3CCC3c3cn4cccc(Cl)c4n3)nc2c1 (racemic) [Compound 58, (±)-8-chloro-2-(2-(7-fluoroimidazo[1,2-a]pyridin-2-yl)cyclobutyl)imidazo[1,2-a]pyridine]
